Results published in BindingDB's records for doi:10.1016/j.bmcl.2016.06.017 (University of Pittsburgh, 2016).

Legend:
[1] = molecular target: T1, Signal transducer and activator of transcription 1-alpha/beta (Homo sapiens, UniProt P42224); test: Inhibition of IFNgamma-induced STAT1 (unknown origin)
T1 sequence (P42224 whole entry): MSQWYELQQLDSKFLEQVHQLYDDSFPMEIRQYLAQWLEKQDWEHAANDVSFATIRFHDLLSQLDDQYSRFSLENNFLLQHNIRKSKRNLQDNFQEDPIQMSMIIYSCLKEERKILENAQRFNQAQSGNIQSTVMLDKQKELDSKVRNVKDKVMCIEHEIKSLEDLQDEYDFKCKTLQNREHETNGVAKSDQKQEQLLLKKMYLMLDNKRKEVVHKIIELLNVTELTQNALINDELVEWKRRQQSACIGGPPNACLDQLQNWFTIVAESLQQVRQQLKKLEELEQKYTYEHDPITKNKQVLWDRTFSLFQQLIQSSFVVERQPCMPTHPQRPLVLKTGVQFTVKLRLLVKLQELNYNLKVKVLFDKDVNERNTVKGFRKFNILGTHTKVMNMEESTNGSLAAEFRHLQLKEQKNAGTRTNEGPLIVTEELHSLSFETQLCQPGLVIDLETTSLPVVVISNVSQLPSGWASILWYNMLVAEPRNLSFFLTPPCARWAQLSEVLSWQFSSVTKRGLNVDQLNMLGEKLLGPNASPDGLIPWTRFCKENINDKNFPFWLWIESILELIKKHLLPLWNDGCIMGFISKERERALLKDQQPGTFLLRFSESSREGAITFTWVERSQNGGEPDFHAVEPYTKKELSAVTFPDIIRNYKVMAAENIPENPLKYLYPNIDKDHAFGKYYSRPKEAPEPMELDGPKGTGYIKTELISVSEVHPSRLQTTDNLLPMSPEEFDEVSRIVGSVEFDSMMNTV

[2] = Inhibition of IL6-induced STAT3 in human CAL33 cells

| SMILES | IC50 [1] [µM] | IC50 [2] [µM] |
| --- | --- | --- |
| Clc1ccc(C2=Nn3c(nnc3-c3cc(-c4ccccc4)n[nH]3)SC2)cc1Cl | > 50 |  |
| c1ccc(C2=Nn3c(nnc3-c3cc(-c4ccccc4)[nH]n3)SC2)cc1 | > 50 |  |
| COc1ccc(C2=Nn3c(nnc3-c3cc(-c4ccccc4)n[nH]3)SC2)cc1 | > 50 | 3.7 |
| c1ccc(-c2cc(-c3nnc4n3N=C(c3ccncc3)CS4)[nH]n2)cc1 | > 50 | > 50 |
| Clc1ccc(C2=Nn3c(nnc3-c3cc(-c4ccccc4)n[nH]3)SC2)s1 | > 50 | > 50 |
| C1=Nn2c(nnc2-c2cc(-c3ccccc3)n[nH]2)SC1 | > 50 | > 50 |
| CC1=Nn2c(nnc2-c2cc(-c3ccccc3)[nH]n2)SC1 | > 50 | > 50 |
| c1ccc(-c2cc(-c3nnc4n3N=C(C3CCCCC3)CS4)[nH]n2)cc1 | > 50 | > 50 |
| COc1ccc(C2CSc3nnc(-c4[nH]nc5c4CCC5)n3N2)cc1 (stereo not drawn) |  | > 50 |
| COc1ccc(C2CSc3nnc(-c4cc(-c5ccccc5)n[nH]4)n3N2C(C)=O)cc1 (stereo not drawn) |  | > 50 |
| Fc1ccc(-c2cc(-c3nnc4n3N=C(c3ccc(Cl)c(Cl)c3)CS4)[nH]n2)cc1 |  | 7.5 |
| Clc1ccc(-c2cc(-c3nnc4n3N=C(c3ccc(Cl)c(Cl)c3)CS4)[nH]n2)cc1 |  | 14.5 |
| CC1Sc2nnc(-c3cc(-c4ccc(F)cc4)n[nH]3)n2N=C1c1ccccc1 (stereo not drawn) | > 30 |  |
| COc1ccc(C2=Nn3c(nnc3-c3cc(-c4ccc(F)cc4)n[nH]3)SC2C)cc1 (stereo not drawn) | > 30 |  |
| COc1ccc(C2=Nn3c(nnc3-c3cc(-c4ccccc4)n[nH]3)SC2CC(C)C)cc1 (stereo not drawn) | > 50 |  |
| Clc1ccc(C2=Nn3c(nnc3-c3[nH]nc4c3CCC4)SC2Cc2ccccc2)cc1Cl (stereo not drawn) | > 50 |  |
| Clc1ccc(C2=Nn3c(nnc3-c3cc(-c4ccccc4)[nH]n3)SC2)cc1 [MLS000558549] | > 50 |  |

Results, then the molecule that gave them:

| IC50 [1] [µM] | IC50 [2] [µM] | SMILES |
| --- | --- | --- |
| > 50 |  | Clc1ccc(C2=Nn3c(nnc3-c3[nH]nc4c3CCC4)SC2)cc1Cl |
| > 50 |  | Clc1ccc(C2=Nn3c(nnc3-c3[nH]nc4c3CCC4)SC2)cc1 |
| > 50 |  | Clc1cccc(C2=Nn3c(nnc3-c3[nH]nc4c3CCC4)SC2)c1 |
| > 50 |  | c1ccc(C2=Nn3c(nnc3-c3[nH]nc4c3CCC4)SC2)cc1 |
| > 50 | > 50 | c1cc(C2=Nn3c(nnc3-c3[nH]nc4c3CCC4)SC2)ccn1 |
| > 50 |  | Clc1ccc(C2=Nn3c(nnc3-c3[nH]nc4c3CCC4)SC2)s1 |
| > 50 | > 50 | C1=Nn2c(nnc2-c2[nH]nc3c2CCC3)SC1 |
| > 50 | > 50 | CC1=Nn2c(nnc2-c2[nH]nc3c2CCC3)SC1 |
| > 50 | > 30 | C1CCC(C2=Nn3c(nnc3-c3[nH]nc4c3CCC4)SC2)CC1 |
|  | 15.5 | Clc1ccc(C2=Nn3c(nnc3-c3[nH]nc4c3CCCC4)SC2)cc1Cl |
| > 50 |  | CC1Sc2nnc(-c3[nH]nc4c3CCC4)n2N=C1c1ccc(Cl)c(Cl)c1 (stereo not drawn) |
| > 50 |  | COc1ccc(C2=Nn3c(nnc3-c3[nH]nc4c3CCC4)SC2C)cc1 (stereo not drawn) |
| > 50 |  | CC(C)C1Sc2nnc(-c3[nH]nc4c3CCC4)n2N=C1c1ccc(Cl)c(Cl)c1 (stereo not drawn) |
| > 50 |  | COc1ccc(C2=Nn3c(nnc3-c3[nH]nc4c3CCC4)SC2C(C)C)cc1 (stereo not drawn) |
| > 50 |  | CC(C)CC1Sc2nnc(-c3[nH]nc4c3CCC4)n2N=C1c1ccc(Cl)c(Cl)c1 (stereo not drawn) |
| > 50 |  | CC1(C)Sc2nnc(-c3[nH]nc4c3CCC4)n2N=C1c1ccc(Cl)c(Cl)c1 |
